Patent US8871751B2, “Compositions and methods relating to nuclear hormone and steroid hormone receptors including inhibitors of estrogen receptor alpha-mediated gene expression and inhibition of breast cancer” (The Board of Trustees of the University of Illinois, priority 2008, dated 2014)
“And” between values parts separate entries of the source, which are not always exact repeats. Equal entries are not always repeated. Where two headings read alike, the source gives them in different places.

Experiments:
ERα = target: T1, ERα (Homo sapiens, UniProt P03372); assay: (ERE)3-luciferase reporter gene assay in T47D-KBluc cells; format: cell-based; design: Using a stably transfected breast cancer cell line that expresses endogenous ERα; endogenous in cells; host or cells: T47D-KBluc
T1 sequence (P03372 1-595): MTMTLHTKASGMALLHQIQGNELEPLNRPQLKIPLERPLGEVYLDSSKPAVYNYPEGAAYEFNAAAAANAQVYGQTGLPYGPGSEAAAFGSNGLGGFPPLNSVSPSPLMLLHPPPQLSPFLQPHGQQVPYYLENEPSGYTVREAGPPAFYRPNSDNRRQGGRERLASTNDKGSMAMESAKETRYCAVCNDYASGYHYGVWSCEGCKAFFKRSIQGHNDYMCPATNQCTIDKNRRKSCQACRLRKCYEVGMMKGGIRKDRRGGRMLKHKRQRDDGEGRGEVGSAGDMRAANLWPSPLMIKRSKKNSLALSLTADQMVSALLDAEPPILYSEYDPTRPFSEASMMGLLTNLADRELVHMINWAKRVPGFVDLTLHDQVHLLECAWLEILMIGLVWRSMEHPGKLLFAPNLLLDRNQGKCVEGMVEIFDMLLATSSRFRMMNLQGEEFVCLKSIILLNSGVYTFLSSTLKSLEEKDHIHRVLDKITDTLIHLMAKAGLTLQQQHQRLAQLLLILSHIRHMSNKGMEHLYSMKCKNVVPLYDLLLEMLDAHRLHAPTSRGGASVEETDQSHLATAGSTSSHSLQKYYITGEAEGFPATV
Description: The T47D-KBluc cells stably express an (ERE)3-luciferase reporter gene (38). […] Four days before E2 induction, the cells were switched to the above medium, with 10% 2× charcoal-dextran-treated calf serum instead of FBS. 200,000 cells/well were transferred to each well of a 24-well plate. After 24 h the indicated concentrations of the test compounds were added in DMSO and E2 was added to 20 pM. After 24 h cells were washed once in PBS, and 150 μl 1× Passive Lysis Buffer (Promega, Madison Wis.) was used to lyse the cells. Luciferase activity was determined using firefly luciferase reagents from Promega (Madison, Wis.).
Reporter Gene Assays. […] AR was assayed in stably transfected HeLa cells and GR was assayed in stably transfected T47D cells maintained as described above. Four days before each experiment the cells were switched to medium containing CD-treated serum as described above. The HeLaAR cells were plated at 100,000 cells/well and the T47D/A1-2 and T47D-KBluc cells were plated at 200,000 cells/well in 1 ml of their respective media in 24-well plates. After 24 hours the indicated concentrations of E2, dihydrotestosterone (DHT) or dexamethasone (Dex) and DMSO vehicle, with or without TPSF, were added to each well. After 24 hours, the cells were washed once in phosphate buffered saline and lysed using 100 μl of 1× Passive Lysis Buffer (Promega, Madison Wis.). Luciferase activity was determined using BrightGlo firefly luciferase reagent from Promega (Madison, Wis.).

AR = target: T2, AR (Homo sapiens, UniProt P10275); assay: AR-mediated gene expression, PSA-luciferase reporter in stable HeLa-AR cells; format: cell-based; conditions: for IC50: 24 h
T2 construct: expressed in transfected cells; host or cells: HeLa (HeLa-AR / HeLaAR)
T2 sequence (P10275 1-920): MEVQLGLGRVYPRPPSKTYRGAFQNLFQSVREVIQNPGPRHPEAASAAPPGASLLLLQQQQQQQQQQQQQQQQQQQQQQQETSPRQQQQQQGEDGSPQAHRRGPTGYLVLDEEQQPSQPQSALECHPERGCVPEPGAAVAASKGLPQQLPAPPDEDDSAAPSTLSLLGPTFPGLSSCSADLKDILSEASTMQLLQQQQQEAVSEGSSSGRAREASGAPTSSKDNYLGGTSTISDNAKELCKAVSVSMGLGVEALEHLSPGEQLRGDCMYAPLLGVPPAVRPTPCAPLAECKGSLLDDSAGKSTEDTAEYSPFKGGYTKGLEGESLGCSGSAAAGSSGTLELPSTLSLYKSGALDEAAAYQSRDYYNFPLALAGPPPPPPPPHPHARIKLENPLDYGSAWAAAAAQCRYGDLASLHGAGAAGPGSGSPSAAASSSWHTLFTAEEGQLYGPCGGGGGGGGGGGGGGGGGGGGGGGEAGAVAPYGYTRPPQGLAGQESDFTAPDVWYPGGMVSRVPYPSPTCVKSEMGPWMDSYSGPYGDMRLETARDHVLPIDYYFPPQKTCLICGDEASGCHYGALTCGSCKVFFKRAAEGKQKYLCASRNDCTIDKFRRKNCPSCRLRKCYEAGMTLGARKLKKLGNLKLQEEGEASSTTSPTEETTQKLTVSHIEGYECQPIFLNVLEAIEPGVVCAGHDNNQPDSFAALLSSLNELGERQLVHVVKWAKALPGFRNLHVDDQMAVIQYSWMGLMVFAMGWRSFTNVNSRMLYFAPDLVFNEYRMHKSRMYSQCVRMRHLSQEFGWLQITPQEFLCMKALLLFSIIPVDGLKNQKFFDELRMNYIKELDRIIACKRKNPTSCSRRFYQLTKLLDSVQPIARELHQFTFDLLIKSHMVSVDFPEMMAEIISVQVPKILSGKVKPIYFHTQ
Description: FIG. 9. Effect of some Theophylline-related compounds on AR-mediated gene expression in stable HeLa-AR cells. Assays were performed as described for ER in the legend to FIG. 4 and PR/GR in FIG. 5. The cells were incubated with 80 pM DHT and the indicated concentration of each small molecule. Luciferase activity was measured after 24 hours. The data represent the mean±SEM for 3 separate experiments at each concentration.
Reporter Gene Assays. TPSF was identified by reporter gene assays comparing the ability of ˜200 compounds structurally related to TPBM (see reference 19) to inhibit transcription of a stably transfected (ERE)3-luciferase reporter gene in T47D-KBluc breast cancer cells (20). AR was assayed in stably transfected HeLa cells and GR was assayed in stably transfected T47D cells maintained as described above. Four days before each experiment the cells were switched to medium containing CD-treated serum as described above. The HeLaAR cells were plated at 100,000 cells/well and the T47D/A1-2 and T47D-KBluc cells were plated at 200,000 cells/well in 1 ml of their respective media in 24-well plates. After 24 hours the indicated concentrations of E2, dihydrotestosterone (DHT) or dexamethasone (Dex) and DMSO vehicle, with or without TPSF, were added to each well. After 24 hours, the cells were washed once in phosphate buffered saline and lysed using 100 μl of 1× Passive Lysis Buffer (Promega, Madison Wis.). Luciferase activity was determined using BrightGlo firefly luciferase reagent from Promega (Madison, Wis.).

[1] = T47D-KBluc cells, 20 pM E2, 24 h, read-out: IC50 for inhibition of E2 dependent ERα transactivation, (ERE)3-luciferase
[2] = HeLa-AR cells, 80 pM DHT, read-out: AR-IC50

Compound | IC50 (ERα; [1]) [nM] | AR at 10 μM (AR) | IC50 (AR; [2]) [µM] | ER at 10 μM (ERα) | further results
CN(C)CCCn1c2c3ccccc3ccc2c2oc(=O)c3ccccc3c21 [Compound 638432] | 800 |  |  |  | 
Cn1c(=O)c2[nH]c(SC3CCCCC3)nc2n(C)c1=S [Compound 95899, 8-Cyclohexylsulfanyl-1,3-dimethyl-2-thioxo-1,2,3,7-tetrahydro-purin-6-one] |  | 88 | 2.5 | 36 | 
Cn1c(=O)c2[nH]c(C3CC4CCC3C4)nc2n(C)c1=O (stereo not drawn) [Compound 101807, 8-Bicyclo[2.2.1]hept-2-yl-1,3-dimethyl-3,7-dihydro-purine-2,6-dione] |  | 50 | 5 | 0 | 
CN1CCC(C#N)c2ccccc21 (stereo not drawn) [Compound 1529] | 22000 |  |  |  | 
CCCSc1nc2c([nH]1)c(=O)n(C)c(=S)n2C [Compound 95869, 1,3-Dimethyl-8-propylsulfanyl-2-thioxo-1,2,3,7-tetrahydro-purin-6-one] |  | 90 | 1 | 20 | 
Cn1c(=S)c2[nH]c(SCCCC(=O)c3ccc(F)cc3)nc2n(C)c1=O [TPSF, Butyrophenone, p-fluoro-4-(1,2,3,6,-tetrahydro-1,3-dimethyl-2-oxo-6-thionopurin-8-ylthio)] |  |  |  |  | IC50 (AR; stably transfected HeLa cells, 1 μM DHT, read-out: IC50 for inhibition of AR gene expression (PSA-Luc)): 33 µM and 34 µM; concentrations necessary to inhibit AR and GR relative to average IC50 for the two ER-regulated genes (higher) (ERα): 20-70 fold; potency as ERα inhibitor relative to TPBM (more potent) (ERα): > 15 fold; IC50 (ERα; PI-9 in MCF-7 and (ERE)3-Luc in T47D, read-out: average IC50 for inhibition of the two ER-regulated genes): 450 nM
